Laboratory results as given in patent EP0393512A1, “New 1,3-dioxolane-2-yl derivatives of 2-picolylamine” (J. URIACH & CIA. S.A., priority 1989, dated 1990).
pIC50: −log10 of the molar value. Like-named read-outs stand apart in the source and are kept apart here.

How the values were obtained:
[1] = tested on: hypotension induced by PAF; assay: Inhibition of the hypotensive effect induced by PAF in normotense rats; type: in vivo, Sprage Dawley rats; details: Rattus norvegicus, iv; anesthetized male rats; compound given through the femoral vein 3 min before PAF (0.5 mcg/Kg, i.v.); average arterial pressure; read-out: IC₅₀
Protocol: Inhibition of the hypotensive effect induced by PAF in normotense rats. Male Sprage Dawley rats, of 180-220 g of weight, anesthetized with sodium pentobarbital (50 mg/Kg, i.p. 1 mL/100 g) have been used. In order to measure the average arterial pressure, a polyethylene catheter is introduced into the carotid artery. The arterial pressure is recorded with the help of a transducer connected with a R611 Beckman polygraph. The tested compounds are administered through the femoral vein 3 min before the injection of PAF (0.5 mcg/Kg, i.v.).

[2] = tested on: platelet aggregation induced by PAF; assay: Inhibition of platelet aggregation induced by PAF (rabbit platelet rich plasma, Born nephelometric technique); type: cell-based, New Zealand albino rabbits; details: concentration needed to inhibit platelet aggregation by 50%, PAF (C₁₈) 16 nM final, read-out: IC₅₀
Protocol: Inhibition of platelet aggregation induced by PAF.
The blood is obtained by cardiac puncture of male New Zealand albino rabbits (between 2 and 2.5 Kg of weight) and coagulation is prevented by adding 1 part of 3.16% sodium citrate dihydrate in 9 parts of blood. The platelet rich plasma (PRP) is prepared by blood centrifugation at 250xg for 10 min. at 4°C and it is diluted with platelet poor plasma (PPP) by additional centrifugation at 3000xg for 10 min. The amount of platelets is adjusted to […]. The platelet aggregation induced by PAF (C₁₈; prepared in our laboratory) (16 nM, final) is determined by the Born nephelometric technique (J. Physiol., 1962, 162 67) using a aggregometer Chrono-log 500.
The activities of the inhibitors are expressed as IC₅₀, that is to say the concentration of the drug needed to inhibit the platelet aggregation by 50%.

Structure (SMILES) | pIC50 ([2]; Oryctolagus cuniculus) | pIC50 [2] | ED50 [1] [mg/kg]
CCCCCCCCCCCCCCCCCC1COC(COC(=O)N(Cc2cccc[n+]2CC)C(C)=O)O1.[I-] (centres unmarked) [Compound 3, 2-[N-Acetyl-N-[((5-heptadecyl-1,3-dioxolan-2-yl)methoxy)carbonyl]aminomethyl]-1-ethylpyridinium iodide] | > 7.30 |  | 0.074
CCCCCCCCCCCCCCCCOCC1COC(COC(=O)N(Cc2ccccn2)C(C)=O)O1.Cl (centres unmarked) [Compound 6, 2-[N-Acetyl-N-[((5-hexadecyloxymethyl-1,3-dioxolane-2-yl)methoxy)carbonyl]aminomethyl] pyridine hydrochloride] | 5.40 |  | > 5
CCCCCCCCCCCCCCCCOCC1COC(COC(=O)N(Cc2cccc[n+]2C)C(C)=O)O1.[I-] (centres unmarked) [Compound 7, 2-[N-Acetyl-N-[((5-hexadecyloxymethyl-1,3-dioxolane-2-yl)methoxy)carbonyl]aminomethyl]-1-methylpyridinium iodide] | 6.00 |  | 0.32
CCCCCCCCCCCCCCCCOCC1COC(COC(=O)N(Cc2cccc[n+]2CC)C(C)=O)O1.[Cl-] (centres unmarked) [Compound 9, 2-[N-Acetyl-N-[((5-hexadecyloxymethyl-1,3-dioxolane-2-yl)methoxy)carbonyl]aminomethyl]-1-ethylpyridinium chloride] |  | > 7.30 | < 0.05
CCCCCCCCCCCCCCCCOCC1COC(COC(=O)N(Cc2cccc[n+]2CC)C(=O)OCC)O1.[I-] (centres unmarked) [Compound 11, 2-[N-Ethoxycarbonyl-N-[((5-hexadecyloxymethyl-1,3-dioxolane-2-yl)methoxy)carbonyl]aminomethyl]-1-ethylpyridinium iodide] | 6.85 |  | 0.095
CCCCCCCCCCCCCCCNC(=O)OCC1COC(COC(=O)N(Cc2cccc[n+]2CC)C(C)=O)O1.[I-] (centres unmarked) [Compound 20, 2-[N-Acetyl-N-[((5-pentadecylcarbamoyloxymethyl-1,3-dioxolane-2-yl)methoxy)carbonyl]aminomethyl]-1-ethylpyridinium iodide] | > 7.30 |  | 0.093
CCCCCCCCCCCCCCCCCNC(=O)OCC1COC(COC(=O)N(Cc2ccccn2)C(C)=O)O1 (centres unmarked) [Compound 22, 2-[N-Acetyl-N-[((5-heptadecylcarbamoyloxymethyl-1,3-dioxolane-2-yl)methoxy)carbonyl]aminomethyl] pyridine] | > 7.30 |  | < 0.05

Continued, in another order:

pIC50 ([2]; Oryctolagus cuniculus) | pIC50 [2] | Structure (SMILES) | ED50 [1] [mg/kg]
> 7.30 |  | CCCCCCCCCCCCCCCCOCC1COC(COC(=O)N(Cc2cccc[n+]2CC)C(C)=O)O1.[I-] (centres unmarked) [Compound 8, 2-[N-Acetyl-N-[((5-hexadecyloxymethyl-1,3-dioxolane-2-yl)methoxy)carbonyl]aminomethyl]-1-ethylpyridinium iodide] | < 0.05
6.96 |  | CCCCCCCCCCCCCCCCCCOCC1COC(COC(=O)N(Cc2cccc[n+]2CC)C(C)=O)O1.[I-] (centres unmarked) [Compound 14, 2-[N-Acetyl-N-[((5-octadecyloxymethyl-1,3-dioxolane-2-yl)methoxy)carbonyl]aminomethyl]-1-ethylpyridinium iodide] | < 0.05
6.82 |  | CCCCCCCCCCCCCCOCC1COC(COC(=O)N(Cc2cccc[n+]2CC)C(C)=O)O1.[I-] (centres unmarked) [Compound 17, 2-[N-Acetyl-N-[((5-tetradecyloxymethyl-1,3-dioxolane-2-yl)methoxy)carbonyl]aminomethyl]-1-ethylpyridinium iodide] | 0.2
